Reference: patent US20090325920A1, “METHODS FOR THE TREATMENT OF A TRAUMATIC CENTRAL NERVOUS SYSTEM INJURY” (priority 2005, published 2009)

System: adults with blunt TBI, Glasgow Coma Scale score 4-12
Source text: We also hoped to detect signals of activity.
According to the U.S. Food and Drug Administration, an “adverse event” is any undesirable medical event occurring to a subject in a clinical trial, whether or not related to the study drug. This includes events not seen at baseline, or worsened if present at baseline. “Serious adverse events” are defined as death, immediate risk of death, or suspicion that use or continued use would result in the patient's death, prolongation of existing hospitalization, persistent or significant disability/incapacity, or a congenital anomaly/birth defect.
These included any thromboembolic event (deep vein thrombosis, thrombophlebitis, ischemic myocardial infarction, pulmonary embolism, stroke or transient ischemic attack), elevated liver enzymes, temperature elevation, allergic reactions, and hyperglycemia. […] An independent internal safety monitor made the determination if an adverse event was associated with study treatment. Both the FDA and an independent NIH-appointed data safety monitoring board independently reviewed these determinations.
Selection of participants: Consecutive adult victims of blunt TBI who reached Grady within 11 hours of injury with a post-stabilization or “index” Glasgow Coma Scale score (iGCS) of 4-12 were eligible for enrollment (FIG. 5).
Interventions: Following proxy consent, patients were placed in one of 8 clinical subgroups defined by gender (male versus female), race (black versus all others) and TBI severity (moderate versus severe). […] This asymmetric approach was adopted at the request of our NIH-appointed DSMB to maximize the number of patients receiving study drug while maintaining blinding.
Whenever a patient was enrolled, the next kit in sequence for that subgroup was used to prepare infusions. […] The remaining vials were used to prepare 5 subsequent 12-hour infusions at the same standard rate of 10 mls/hour for a total of 3 days of treatment. Details of drug monitoring are reported elsewhere (Wright et al. (2005) J Clin Pharmacol 45(6):640-648).
Methods of Measurement: To assess drug safety, study personnel rounded daily to document the occurrence of adverse events (AEs) or serious adverse events (SAEs). Hourly vital signs (blood pressure, heart rate, respiratory rate, temperature, and pulse oximetry), intracranial pressure readings, and other parameters (mean arterial pressure, cerebral perfusion pressure, and fluid balance), were abstracted from each patient's chart. Laboratory values were obtained from the hospital's information system, and concomitant medications and interventions were noted.
Whenever an SAE occurred, an independent board-certified neurosurgeon assessed its potential relationship to study treatment using pre-defined scale. SABs were reported within 24 hours to the Institutional Review Board (IRB), our NIH-appointed Data Safety Monitoring Board (DSMB), and the U.S. Food and Drug Administration. All other adverse events were reported to on a weekly basis.
The infusion was stopped if a patient experienced an anaphylactic reaction, a major thromboembolic event, an unexplained elevation of serum aspartate aminotransferase (AST) or alanine aminotransferase (ALT) to a level greater than 5,000 IU, or a serum total bilirubin level greater than 10 mg/dl. […] These rules were based on O'Brien-Fleming boundaries (O'Brien and Fleming (1979) Biometrics 35(3):549-556), constructed using an alpha spending approach (DeMets and Lan (1994) Statistics in Medicine 13(13-14):1341-1352; discussion 1353-1346).
Primary Data Analysis—Treatment and placebo groups were compared with respect to a variety of demographic, historical and prehospital characteristics to ensure that important independent predictors of outcome were equally distributed.

CC(=O)[C@H]1CC[C@H]2[C@@H]3CCC4=CC(=O)CC[C@]4(C)[C@H]3CC[C@]12C [progesterone, pregn-4-ene-3,20-dione]
30-day adverse event rate: Acute respiratory distress syndrome (both, human, in vivo, 30 days): 2.6%
30-day adverse event rate: Cardiac Arrhythmia (both, human, in vivo, 30 days): 5.2%
30-day adverse event rate: Cholestatic Jaundice (both, human, in vivo, 30 days): 6.5%
30-day adverse event rate: Fever (both, human, in vivo, 30 days): 70.1%
30-day adverse event rate: Gastrointestinal Bleed (both, human, in vivo, 30 days): 5.2%
30-day adverse event rate: Hyperglycemia-non DM (both, human, in vivo, 30 days): 27.3%
30-day adverse event rate: Hypertension (both, human, in vivo, 30 days): 11.7%
30-day adverse event rate: Hypotension (both, human, in vivo, 30 days): 9.1%
30-day adverse event rate: Hypothermia (both, human, in vivo, 30 days): 5.2%
30-day adverse event rate: Hypoxemia (both, human, in vivo, 30 days): 11.7%
30-day adverse event rate: Increase Liver Enzyme (both, human, in vivo, 30 days): 6.5%
30-day adverse event rate: Phlebitis at Injection Site (both, human, in vivo, 30 days): 1.3%
30-day adverse event rate: Rash or Hives (both, human, in vivo, 30 days): 2.6%
30-day adverse event rate: Seizures (both, human, in vivo, 30 days): 5.2%
30-day adverse event rate: Shock (both, human, in vivo, 30 days): 2.6%
30-day adverse event rate: Suspected Pneumonia (both, human, in vivo, 30 days): 11.7%
30-day adverse event rate: Syndrome of inappropriate ADH (both, human, in vivo, 30 days): 1.3%
30-day adverse event rate: Tachycardia (both, human, in vivo, 30 days): 24.7%
30-day adverse event rate: Thromboembolic Disease (both, human, in vivo, 30 days): 3.9%
Mean Duration of Pressures Exceeding Threshold Values: CPP < 60 (in vivo): 6.9 h
Mean Duration of Pressures Exceeding Threshold Values: ICP > 25 (in vivo): 5.0 h
Mean Duration of Pressures Exceeding Threshold Values: MAP < 70 (in vivo): 2.5 h
Mean Duration of Pressures Exceeding Threshold Values: Systolic BP < 90 (in vivo): 2.7 h
Mean Frequency of Pressures Exceeding Threshold Values: CPP < 60 (in vivo): 92.9 Rate/1000 consecutive readings
Mean Frequency of Pressures Exceeding Threshold Values: ICP > 25 (in vivo): 70.2 Rate/1000 consecutive readings
Mean Frequency of Pressures Exceeding Threshold Values: MAP < 70 (in vivo): 29.5 Rate/1000 consecutive readings
Mean Frequency of Pressures Exceeding Threshold Values: Systolic BP < 90 (in vivo): 32.1 Rate/1000 consecutive readings
Percent of Patients with Clinical Values Exceeding the Threshold: CPP < 60 (in vivo): 48.7%
Percent of Patients with Clinical Values Exceeding the Threshold: ICP > 25 (in vivo): 32.4%
Percent of Patients with Clinical Values Exceeding the Threshold: MAP < 70 (in vivo): 29.0%
Percent of Patients with Clinical Values Exceeding the Threshold: Systolic BP < 90 (in vivo): 29.0%
adverse events specifically ascribed to administration (in vivo): two cases of superficial phlebitis at the IV site
aggregate and individual rates of adverse and serious adverse events versus placebo (in vivo): not different between groups
patients who developed a deep vein thrombosis (in vivo): Three patients
serious adverse events attributed to study drug (in vivo): No serious adverse events were attributed to progesterone
slope of treatment by time interaction term for mean temperature (in vivo): −0.0055
30-day adverse event rate: Central nervous system infection (progesterone group, n=77): 1.3%
30-day adverse event rate: Death within 30 days (progesterone group, n=77): 13.0%
30-day adverse event rate: Sepsis (progesterone group, n=77): 2.6%
